Data published in ChEMBL document CHEMBL4190226, “Designing novel inhibitors against histone acetyltransferase (HAT: GCN5) of Plasmodium falciparum” (Eur J Med Chem, 2017).
Calls of active or inactive are those of the source. No cut-off for these calls is given here.

Biological target: Histone acetyltransferase GCN5 (Plasmodium falciparum (isolate 3D7)) (UniProt Q8IB67)
Experiment: Inhibition of GCN5 in Plasmodium falciparum 3D7 assessed as reduction in H3K9 acetylation at 25 uM incubated for 15 mins measured by SDS-PAGE analysis

Histone acetyltransferase GCN5 (Plasmodium falciparum (isolate 3D7)), sequence (Q8IB67 as listed by the source): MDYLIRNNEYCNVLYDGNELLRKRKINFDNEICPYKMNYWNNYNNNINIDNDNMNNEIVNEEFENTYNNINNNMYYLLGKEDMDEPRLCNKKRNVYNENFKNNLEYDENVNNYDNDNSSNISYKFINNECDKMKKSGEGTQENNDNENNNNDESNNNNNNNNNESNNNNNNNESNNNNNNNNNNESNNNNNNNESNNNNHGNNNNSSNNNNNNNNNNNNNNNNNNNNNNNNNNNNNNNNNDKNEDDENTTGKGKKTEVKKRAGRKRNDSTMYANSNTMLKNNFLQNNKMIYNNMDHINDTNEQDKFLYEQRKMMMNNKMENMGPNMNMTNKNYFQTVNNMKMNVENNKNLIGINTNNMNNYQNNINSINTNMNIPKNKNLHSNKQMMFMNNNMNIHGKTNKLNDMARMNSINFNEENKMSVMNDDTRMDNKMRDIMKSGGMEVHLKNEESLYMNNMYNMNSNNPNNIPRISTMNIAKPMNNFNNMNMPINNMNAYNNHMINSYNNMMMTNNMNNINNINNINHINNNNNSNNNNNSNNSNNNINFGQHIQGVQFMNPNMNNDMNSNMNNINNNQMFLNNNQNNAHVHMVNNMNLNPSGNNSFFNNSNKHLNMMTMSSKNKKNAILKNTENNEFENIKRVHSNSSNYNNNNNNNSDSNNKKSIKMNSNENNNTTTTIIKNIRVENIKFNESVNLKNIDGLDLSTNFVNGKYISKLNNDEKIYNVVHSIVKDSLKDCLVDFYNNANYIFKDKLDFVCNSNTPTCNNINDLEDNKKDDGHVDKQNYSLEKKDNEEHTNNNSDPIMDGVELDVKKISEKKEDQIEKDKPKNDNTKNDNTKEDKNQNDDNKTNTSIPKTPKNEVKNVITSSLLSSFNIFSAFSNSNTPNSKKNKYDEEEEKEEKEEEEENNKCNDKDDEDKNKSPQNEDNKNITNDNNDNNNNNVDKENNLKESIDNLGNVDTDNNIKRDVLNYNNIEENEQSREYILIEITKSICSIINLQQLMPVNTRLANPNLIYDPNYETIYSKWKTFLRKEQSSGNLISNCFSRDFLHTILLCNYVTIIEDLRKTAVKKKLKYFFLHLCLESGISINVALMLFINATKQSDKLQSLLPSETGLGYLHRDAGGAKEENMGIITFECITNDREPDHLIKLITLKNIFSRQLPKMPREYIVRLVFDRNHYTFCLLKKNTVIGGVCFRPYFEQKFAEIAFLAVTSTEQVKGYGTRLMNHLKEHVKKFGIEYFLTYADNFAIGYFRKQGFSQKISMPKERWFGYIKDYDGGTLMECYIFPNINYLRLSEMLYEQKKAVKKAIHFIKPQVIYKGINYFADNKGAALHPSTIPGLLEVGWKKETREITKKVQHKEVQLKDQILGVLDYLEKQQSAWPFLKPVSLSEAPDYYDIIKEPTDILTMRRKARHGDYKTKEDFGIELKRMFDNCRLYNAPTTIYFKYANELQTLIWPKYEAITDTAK

## CCCCCCCCCCCC1=C(O)C(=O)C=C(O)C1=O
  inhibition: Active
